Test results taken from article PMC10289985, “Brigatinib pharmacokinetics in patients with chronic hepatic impairment” (Investigational New Drugs, 2023).
Like-named read-outs stand apart in the source and are kept apart here.

What was measured:
[1] = Single oral 90-mg dose plasma PK in participants with chronic hepatic impairment and matched healthy participants; assay type: in vivo, human; conditions: for Tmax / half-life / AUC(0-t) / AUC(0-inf): human, plasma, po, 90 mg; for Tmax / half-life / AUC(0-t) / AUC(0-inf) / Tmax, median (range) / CL/Fu, unbound apparent oral clearance, geometric mean (geometric %CV) / Vz/Fu, unbound apparent volume of distribution, geometric mean (geometric %CV) / Cmax,u, geometric mean (geometric %CV): single oral 90 mg; for Tmax / Tmax, median (range): fasted; for Tmax: read-out: Tmax, median (range); for half-life: read-out: t1/2, terminal elimination half-life, geometric mean (geometric %CV) (converted); for AUC(0-t) / AUC(0-inf) / Cmax,u, geometric mean (geometric %CV): unbound; for AUC(0-t): read-out: AUC0−last,u, geometric mean (geometric %CV); for AUC(0-inf): read-out: AUC0−∞,u, geometric mean (geometric %CV)
Protocol: This open-label, parallel-group, inpatient, nonrandomized study was performed at 1 clinical study site, the Orlando Clinical Research Center (Orlando, FL, USA), and evaluated the PK of brigatinib after administration of a single oral 90-mg dose in participants with chronic hepatic impairment and in healthy participants with normal hepatic function. The study consisted of a screening period of up to 22 days and a single treatment and assessment period that included a 10-day (9-night) inpatient stay (Day −1 to Day 9). On the morning of Day 1, each participant received a single oral dose of 90 mg brigatinib under fasting conditions with approximately 240 mL of water. Fasting was required for approximately 10 hours before study drug dosing, for approximately 4 hours postdose, and for at least 8 hours before clinical laboratory tests. Meals were standardized for all participants. Water was permitted ad libitum except for the period between approximately 1 hour before and 1 hour after dosing. Participants remained in the clinic through 192 hours postdose for PK sample collection and were discharged from the clinical research site on Day 9.
Blood samples were collected before brigatinib administration (predose) and at 0.5, 1, 1.5, 2, 2.5, 3, 4, 6, 8, 12, 24, 36, 48, 72, 96, 120, 144, 168, and 192 hours following brigatinib administration to measure brigatinib plasma concentrations. Samples to assess brigatinib plasma protein binding were collected at 2, 8, and 24 hours postdose.
Plasma samples were analyzed for brigatinib concentrations using a previously reported dual-range assay with a lower limit of quantitation of 0.100 ng/mL and an upper limit of quantitation of 2500 ng/mL [14].
The PK-evaluable population was defined as participants who received the single dose of brigatinib, had no major protocol deviations that affected the PK analyses, and had sufficient data to calculate PK parameters. Individual participant brigatinib plasma concentration-time profiles were analyzed via noncompartmental analysis using Phoenix WinNonLin version 6.4 (Certara, Inc., Princeton, NJ) to calculate plasma PK parameters. Plasma PK parameters calculated for brigatinib included maximum observed plasma concentration (Cmax), time to first maximum observed plasma concentration (Tmax), area under the plasma concentration-time curve from time 0 to the time of the last measurable concentration (AUC0−last), area under the plasma concentration-time curve from time 0 to infinity (AUC0−∞), terminal elimination half-life (t1/2), apparent oral clearance (CL/F), and apparent volume of distribution during the terminal disposition phase (Vz/F). The fraction of unbound brigatinib in plasma was calculated using the following formula: % free (unbound) = [free brigatinib concentration measured in buffer after dialysis] / [total brigatinib concentration measured in plasma] × 100. Unbound brigatinib PK parameters were derived from the following formula (except for the unbound CL/F and unbound Vz/F, which were calculated as total CL/F or total Vz/F divided by the individual participant’s overall mean fraction unbound): unbound PK parameter = (PK parameter based on total concentrations) × (individual participant’s overall mean fraction unbound value).
Descriptive statistics, including mean, standard deviation (SD), percent coefficient of variation (%CV), and median, minimum, and maximum values, were calculated for each time point for plasma brigatinib concentrations for the healthy participant and each Child-Pugh group. Arithmetic means, SD, %CV, median, minimum, and maximum values, and the number of observations were calculated for the PK parameters. Geometric mean and geometric %CV were derived for all parameters, except Tmax, which was reported as median (minimum–maximum). Statistical comparisons of unbound brigatinib PK parameters were made among the hepatic function groups (ie, healthy participants, Child-Pugh classes A, B, and C) using an analysis of variance. […]

[2] = parameters: method as in PMID 30570839; conditions: versus fasted conditions; healthy participants; cited from earlier work
[3] = mild (Child-Pugh A) vs normal hepatic function
[4] = moderate (Child-Pugh B) vs normal hepatic function
[5] = severe (Child-Pugh C) vs normal hepatic function

COc1cc(N2CCC(N3CCN(C)CC3)CC2)ccc1Nc1ncc(Cl)c(Nc2ccccc2P(C)(C)=O)n1 [brigatinib]
geometric mean AUC0−last,u higher than in healthy participants ([1]; Child-Pugh C vs healthy participants with normal hepatic function): 34% | Tmax ([1]; mild (Child-Pugh A) hepatic impairment (n=6)): 1.75 h | Tmax ([1]; severe (Child-Pugh C) hepatic impairment (n=6)): 0.5 h | half-life ([1]; mild (Child-Pugh A) (n=6)): 47 h | half-life ([1]; moderate (Child-Pugh B) (n=6)): 48.7 h | half-life ([1]; normal hepatic function (n=9)): 47.6 h | half-life ([1]; severe (Child-Pugh C) (n=6)): 51 h | AUC(0-t) ([1]; mild (Child-Pugh A) (n=6)): 522 ng·h/mL | AUC(0-inf) ([1]; mild (Child-Pugh A) (n=6)): 539 ng·h/mL | AUC(0-t) ([1]; moderate (Child-Pugh B) (n=6)): 578 ng·h/mL | AUC(0-inf) ([1]; moderate (Child-Pugh B) (n=6)): 601 ng·h/mL | AUC(0-t) ([1]; normal hepatic function (n=9)): 581 ng·h/mL | AUC(0-inf) ([1]; normal hepatic function (n=9)): 603 ng·h/mL | AUC(0-t) ([1]; severe (Child-Pugh C) (n=6)): 781 ng·h/mL | AUC(0-inf) ([1]; severe (Child-Pugh C) (n=6)): 829 ng·h/mL | AUC0−last,u geometric LSM ratio (90% CI) [1, 3]: 89.77 (70.37–114.52) % | AUC0−∞,u geometric LSM ratio (90% CI) [1, 3]: 89.32 (69.79–114.31) % | Cmax,u geometric LSM ratio (90% CI) [1, 3]: 94.75 (75.36–119.12) % | AUC0−last,u geometric LSM ratio (90% CI) [1, 4]: 99.41 (77.93–126.82) % | AUC0−∞,u geometric LSM ratio (90% CI) [1, 4]: 99.55 (77.78–127.41) % | Cmax,u geometric LSM ratio (90% CI) [1, 4]: 92.01 (73.18–115.68) % | AUC0−last,u geometric LSM ratio (90% CI) [1, 5]: 134.38 (105.34–171.43) % | AUC0−∞,u geometric LSM ratio (90% CI) [1, 5]: 137.41 (107.37–175.86) % | Cmax,u geometric LSM ratio (90% CI) [1, 5]: 165.26 (131.44–207.78) % | Tmax, median (range) ([1]; moderate (Child-Pugh B) hepatic impairment (n=6)): 2.00 (0.50‒3.00) h | Tmax, median (range) ([1]; normal hepatic function (n=9)): 2.00 (1.00‒6.00) h | CL/Fu, unbound apparent oral clearance, geometric mean (geometric %CV) ([1]; mild (Child-Pugh A) (n=6)): 167 (24.9) L/h | Vz/Fu, unbound apparent volume of distribution, geometric mean (geometric %CV) ([1]; mild (Child-Pugh A) (n=6)): 11,300 (45.8) L | CL/Fu, unbound apparent oral clearance, geometric mean (geometric %CV) ([1]; moderate (Child-Pugh B) (n=6)): 150 (39.8) L/h | Vz/Fu, unbound apparent volume of distribution, geometric mean (geometric %CV) ([1]; moderate (Child-Pugh B) (n=6)): 10,500 (29.5) L | CL/Fu, unbound apparent oral clearance, geometric mean (geometric %CV) ([1]; normal hepatic function (n=9)): 149 (25.0) L/h | Vz/Fu, unbound apparent volume of distribution, geometric mean (geometric %CV) ([1]; normal hepatic function (n=9)): 10,200 (31.0) L | CL/Fu, unbound apparent oral clearance, geometric mean (geometric %CV) ([1]; severe (Child-Pugh C) (n=6)): 109 (20.0) L/h | Vz/Fu, unbound apparent volume of distribution, geometric mean (geometric %CV) ([1]; severe (Child-Pugh C) (n=6)): 7,990 (33.2) L | Cmax,u, geometric mean (geometric %CV) ([1]; mild (Child-Pugh A) (n=6)): 28.7 (9.5) ng/mL | Cmax,u, geometric mean (geometric %CV) ([1]; moderate (Child-Pugh B) (n=6)): 27.8 (24.8) ng/mL | Cmax,u, geometric mean (geometric %CV) ([1]; normal hepatic function (n=9)): 30.3 (27.2) ng/mL | Cmax,u, geometric mean (geometric %CV) ([1]; severe (Child-Pugh C) (n=6)): 50.0 (34.5) ng/mL | effect of a high-fat, high-calorie meal on total systemic exposure (AUC) [2]: no clinically meaningful effect
